This passage reports solubility in water results from patent US20170119844A1, “HEMOSTATIC PHARMACEUTICAL COMPOSITION” (OTSUKA CHEMICAL CO., LTD., priority 2014, published 2017).

A short description of this data set: Solubility in ultrapure water when preparing peptide solutions. Type of data set: physicochemical.

Take `CC(=O)N[C@@H](CCCNC(=N)N)C(=O)N[C@@H](C)C(=O)N[C@@H](CC(=O)O)C(=O)N[C@@H](C)C(=O)N[C@@H](CCCNC(=N)N)C(=O)N[C@@H](C)C(=O)N[C@@H](CC(=O)O)C(=O)N[C@@H](C)C(=O)N[C@@H](CCCNC(=N)N)C(=O)N[C@@H](C)C(=O)N[C@@H](CC(=O)O)C(=O)N[C@@H](C)C(=O)N[C@@H](CCCNC(=N)N)C(=O)N[C@@H](C)C(=O)N[C@@H](CC(=O)O)C(=O)N[C@@H](C)C(N)=O` [(RADA)4]: the solubility in water entry is listed as “did not completely dissolve at a concentration of 2% by weight or higher”.
